Here are results for two compounds from US6071944A, “Method of treatment of pigmented cancer cells utilizing photodynamic therapy” (Bowling Green State University, priority 1997, dated 2000).

The subject of one series is pigmented melanoma. The conditions noted are these: very virulent pigmented melanoma; cited from earlier work.
The next series concerns Amelanotic melanoma. The conditions noted are these: cited from earlier work.
Details of series [1]: species or system C57 mice. The conditions noted are these: mouse, in vivo, iv, 1 mg/kg, 3 h. The method, then:
(§1) SiNc incorporated into DPPC liposomes was injected at a dose of 1 mg/kg body weight into the caudal vein of C57 mice bearing the B16 pigmented melanoma. Three groups of mice (three mice per each time point) were used: (a) unirradiated control mice; (b) mice injected immediately after irradiation with the Nd: YAG laser (1064 nm, one pulse, 650 mJ); (c) mice injected at 24 h or 48 h before irradiation under the same conditions indicated for group (b). In all cases, at 3, 24 and 48 h after injection of isoBO--SiNc (groups a and b) and immediately after irradiation (group c), the mice were sacrificed by prolonged exposure to ether vapor. The blood was rapidly taken, centrifuged at 3000 rpm for 10 min. to remove the erythrocytes, and the serum was analyzed for its isoBO--SiNc content by a spectrophotofluorimetric procedure (4) using 690 nm as the excitation wavelength. The liver, tumor and peritumoral skin (namely an area with a 0.5 cm width surrounding the tumor) were excised and their isoBO--SiNc content was determined spectrophotofluorimetrically as previously described (4,5).
The pharmacokinetic behavior of systematically injected isoBO--SiNc in unirradiated and 1064 nm-irradiated (650 mJ, one pulse) C57 mice is shown in Table 1.
C = control mice (mice not irradiated) […]
Values ± SD; three mice were independently analyzed each time, with th
exception of I where six mice were analyzed.

A short description of series [2]: Effect of 1064 nm light on the photosensitizer (recovery, group II). Format: in vivo, C57 mice. Conditions: injected 24 and 48 h before irradiation. The method, then: as §1
II = mice injected at 24 and 48 h before irradiation (1064 nm, 650 mJ, 1
Special attention was paid to the recoveries obtained at 24 h and 48 h after injection since these time intervals correspond with the maximum isoBO--SiNc accumulation in a variety of transplanted tumors and are generally used for PDT. […]

The next series concerns B16 pigmented melanoma. The series can be described thus: Photodynamic therapy and high peak power irradiation studies: tumour regrowth of B16 pigmented melanoma. Format: in vivo, C57 mice. Here is the method: Female C57/BL6 and BALB/C mice (18-20 g body weight) obtained from Harlan Spraque Dawley, Inc. (Indianapolis, Ind.) were used as experimental models. B16 pigmented melanoma (the B16 cell line was obtained from American Type Culture Collection) was subcutaneously transplanted into the upper flank by injecting […] of a sterile cell suspension in PBS. The cell line was cultured in Dulbecco's modified minimal essential medium supplemented with 10% fetal calf serum. The cell culture was maintained at 37° C. in a humidified atmosphere of 5% CO2 in air. All of our experiments were performed at 5-7 days after injection of B16 melanoma cells, when the tumor volume was in the range of 0.02-0.04 cm^3 with an external diameter of 0.4-0.6 cm and a depth of 0.15-0.2 cm.
When the tumor diameter was in the range of 0.4-0.6 cm, groups of 7-8 B16 melanoma bearing mice were irradiated with 1064 nm light from the Nd: YAG laser at 500 or 650 mJ per pulse (HPP). In one group of mice at 24 h after isoBO--SiNc injection (1 mg/kg) the tumor area was exposed to 774 nm light from a dye laser which was operated at a fluence rate of 300 mW/cm^2 for a total light fluence of 520 J/cm^2. This PDT treatment was performed, in other two groups, also before or after the tumors had been exposed to 1064 nm light from the Nd: YAG (650 mJ). Another group of 8 mice was treated with PDT (isoBO--SiNc 1 mg/kg, 300 mW/cm^2, 520 J/cm^2) preceded by HPP (1064 nm, 650 mJ) and retreated in the same way 10 days later, when the tumors were regrowing.
In a parallel set of experiments, a sequential treatment involving HPP and PDT (with the same irradiation conditions mentioned above) was followed by an immediate further irradiation at 550 mW/cm^2 and 200 j/cm^2 from the same 774 nm light. For each group the effectiveness of the treatment was evaluated by comparing the rate of tumor growth of the irradiated mice with that observed for control mice transplanted simultaneously with the phototreated mice but not exposed to light and not injected with isoBO--SiNc. The tumor size was measured daily by means of a caliper. Individual tumor volumes (V) were calculated by assuming a hemiellipsoidal structure for the tumor nodule and measuring the two perpendicular axes (a and b) and the height (c). Application of the relationship V 2/3(a/2×b/2×c) provided the tumor volume. The time to reach a defined tumor volume was calculated for the individual tumors.
Special attention was paid to the recoveries obtained at 24 h and 48 h after injection since these time intervals correspond with the maximum isoBO--SiNc accumulation in a variety of transplanted tumors and are generally used for PDT. The data obtained for control mice were in good agreement with those previously found in our laboratory. […] On the basis of the above described findings, a PDT experiment (776 nm; 300 mW/cm^2 -520 J/cm^2) was performed at 24 h post injection, immediately after HPP irradiation with a single 650 mJ pulse of 1064 nm light.
HPP: High Peak Power irradiation from Nd: YAG laser, 1064 nm, […] per
PDT: Photodynamic Therapy from dye laser, 774 nm, 300 mW/cm^2, 520
PTT: Photothermal Therapy from dye laser, 774 nm, 550 mW/cm^2, 200
*Difference between the growth time for treated and control mice. The
growth time is the time interval for the tumour to grow to a volume of 1
cm^3 from the size at the time of irradiation (0.03-0.04 cm^3).
The growth time of control mice was 11 days.

“Also recorded” adds a separate entry of the source.

As to Photofrin, the “response of pigmented melanoma to PDT” value in the series on pigmented melanoma is listed as “poorly responsive”. In addition, in the series with Amelanotic melanoma, the “response of amelanotic melanoma to Photofrin-PDT” value was “successfully treated”.

Consider `CCCCCCCCCCCCCCCCCC[Si]([O-])(CC(C)C)CC(C)C.CCCCCCCCCCCCCCCCCC[Si]([O-])(CC(C)C)CC(C)C.[Si+4].c1ccc2cc3c(cc2c1)-c1nc2nc(nc4[n-]c(nc5[n-]c(nc-3n1)c1cc3ccccc3cc51)c1cc3ccccc3cc41)-c1cc3ccccc3cc1-2` [isoBO-SiNc, Bis(di-isobutyloctadecylsiloxy)-2,3-naphthalocyanato silicon], for which the “Recovery of isoBO-SiNc from selected tissues: peritumoural skin” value in series [1] is given as 0.44 ± 0.1 μg of drug per g. In series [2], the “effect of 1064 nm irradiation on recovery / integrity of the photosensitizer” value is reported as “no appreciable effect on the recovery; also recorded: not affected by 1064 nm light”. Besides, the “delay of tumor regrowth” value in the series with B16 pigmented melanoma (1 mg/kg, PDT 300 mW/cm^2, 520 J/cm^2, 776 nm diode laser immediately after 1064 nm irradiation) turned out to be 11 days; in the series on B16 pigmented melanoma (PDT under identical conditions without the pre-irradiation), 4 days. For the same compound, the “Mice tumour free time” value in the series on B16 pigmented melanoma (HPP + PDT) was found to be 9 days; with B16 pigmented melanoma (HPP + PDT + HPP + PDT (retreated 10 days later)), 21 days; in the series on B16 pigmented melanoma (HPP + PDT + PTT (774 nm, 550 mW/cm^2, 200 J/cm^2)), 22 days; in the series on B16 pigmented melanoma (PDT (774 nm, 300 mW/cm^2, 520 J/cm^2), 1 mg/kg), 2 days; in the series on B16 pigmented melanoma (PDT + HPP (1064 nm Nd:YAG, 650 mJ per pulse)), 2 days. The Regrowth delay with B16 pigmented melanoma (HPP + PDT + HPP + PDT (retreated 10 days later), growth time to 1 cm^3 vs control mice) was 27 days; in the series with B16 pigmented melanoma (HPP + PDT + PTT, growth time to 1 cm^3 vs control mice), 34.6 days; with B16 pigmented melanoma (HPP + PDT, growth time to 1 cm^3 vs control mice) it was 16.4 days; in the series with B16 pigmented melanoma (PDT + HPP, growth time to 1 cm^3 vs control mice), 7 days; in the series on B16 pigmented melanoma (PDT, difference in growth time to 1 cm^3 between treated and control mice), 6.3 days. The “tumor response to combined HPP and PDT” value in the series with B16 pigmented melanoma (HPP irradiation followed by PDT) is reported as “remarkable retardation in tumor growth rate; also recorded: significant tumor response which is markedly larger than that obtained with either treatment alone”. The “animals essentially tumor-free post-PDT” value in the series with B16 pigmented melanoma (PDT (776 nm; 300 mW/cm^2, 520 J/cm^2) 24 h post injection, immediately after HPP 650 mJ pulse, FIG. 3) is roughly 11 days.
